The target of assay [1] is Cathepsin D (Cat D) (Homo sapiens, UniProt P07339). Nature of the assay: In vitro enzymatic Cathepsin D (Cat D) FRET assay. The format is biochemical. The procedure:
In Vitro Enzymatic Cathepsin D (Cat D) FRET (Fluorescence Resonance Energy Transfer) Assay
Recombinant Cat D was expressed in CHO cells. The assay buffer for CathepsinD is 0.05 M citrate pH 3.5, 10% DMSO final, 5 mM CHAPS. The Cat D enzyme (9 nM) is pre-incubated for one hour with inhibitors, typically in about 1 uL of DMSO according to a serial dilution, is added thereto. The assays are effectively started by the addition of different FRET substrates (20 nM for Cat D) and the combination is incubated for one hour. The FRET assay is terminated with by addition of Tris buffer, which raises the pH to neutrality, and the fluorescence is determined. The FRET substrate is a peptide with commercially available fluorophore and quencher, on opposite sides of the BACE cleavage site. The Cat D substrate peptide sequence is based on sequence #1 of Table 1 from Gulnik et al. FEBS Letters v413 p 379-384 1997. Proteolytic cleavage of the FRET substrate releases quenching of fluorescence (Cat D excitation 500 nm and emission 580 nm). […]
See, for instance, examples 8, 12, 15, 16, 18, 21-23, 24, 25, 26, 29, 30, 32, 41-42, 45, 53, 54, 57, 63, 67-69, 72-74, 76, 79-81, 83 & 84 (to point to just a few; referring to data in Table 2). […] See, for instance, examples 8, 12, 15, 18, 21-23, 25, 29, 30, 32, 41-42, 45, 54, 57, 67-68, 72-73, 76, 80-81, 84, 86, 91-92 & 100 (to point out those from compound examples 1-100; and with reference to data in Table 2).

Assay [2] addresses Beta Secretase enzyme (BACE) (Homo sapiens, UniProt P56817). The assay can be described thus: In vitro enzymatic BACE FRET assay. As to conditions: read-out: BACE1 FRET assay IC50. The format is biochemical. The method, then: In Vitro Enzymatic BACE FRET (Fluorescence Resonance Energy Transfer) Assay (Enzyme Assay Data in the Example Table I)
The assay buffer used in this screen is 0.05 M acetate, pH 4.2, 10% DMSO final, 100 uM genapol (which is a nonionic detergent, below its Critical Micelle Concentration). The Beta Secretase enzyme (0.2 nM) is pre-incubated for one hour with inhibitors, typically in about 1 uL of DMSO according to a serial dilution, are added thereto. This assay is effectively started by the addition of FRET substrate (50 nM) and the combination is incubated for one hour. The FRET assay is terminated with by addition of Tris buffer, which raises the pH to neutrality, and the fluorescence is determined. The FRET substrate is a peptide with commercially available fluorophore and quencher, on opposite sides of the BACE cleavage site. Proteolytic cleavage of the FRET substrate releases quenching of fluorescence (excitation 488 nm and […]).

For assay [3], the system named is Aβ 40 in conditioned medium of cells stably expressing Amyloid Precursor Protein (APP). The assay can be described thus: In vitro BACE cell-based assay (Aβ 40 sandwich ELISA). As to conditions: Homo sapiens, HEK293. The method, then:
In Vitro BACE Cell-Based Assay
The cell-based assay measures inhibition or reduction of […] in conditioned medium of test compound treated cells expressing amyloid precursor protein.
Cells stably expressing Amyloid Precursor Protein (APP) were plated at a density of 40K cells/well in 96 well plates (Costar). The cells were cultivated for 24 hours at 37° C. and 5% CO2 in DMEM supplemented with 10% FBS. The test compounds were then added to cells in 10-point dose response concentrations with the starting concentration being either 100 μM or 10 μM. The compounds were diluted from stock solutions in DMSO and the final DMSO concentration of the test compounds on cells was 0.1%. After 24 h of incubation with the test compounds the supernatant conditioned media was collected and the Aβ 40 levels were determined using a sandwich ELISA. The IC50 of the compound was calculated from the percent of control or percent inhibition of Aβ 40 as a function of the concentration of the test compound.
The sandwich ELISA to detect Aβ 40 was performed in 96 well microtiter plates, which were pre-treated with goat anti-rabbit IgG (Pierce). The capture and detecting antibody pair that were used to detect Aβ 40 from cell supernatants were affinity purified pAb40 (Biosource) and biotinylated 6E10 (Signet Labs Inc.), respectively. The optimal concentration for the pAb40 antibody was 3 μg/ml in Superblock/TBS (Pierce) that was supplemented with 0.05% Tween 20 (Sigma). Optimal concentration for the detection antibody 6E10-biotinylated was 0.5 μg/ml in Superblock/TBS (Pierce) that had been supplemented with 2% normal goat serum and 2% normal mouse serum.
Cellular supernatants were incubated with the capture antibody for 3 h at 4° C., followed by 3 wash steps in TBS-tween (0.05%). The detecting antibody incubation was for 2 h at 4° C., again followed by the wash steps as described previously. The final readout of the ELISA is Time-Resolved Fluorescence (counts per minute) using Delfia reagents Streptavidin-Europium and Enhancement solutions (Perkin Elmer) and the Victor 2 multilabel counter (Perkin Elmer).
On the technique in general: ELISA stands for enzyme-linked immunosorbent assay.

Setting [4] is: Cathepsin D FRET assay, read-out: CatD IC50.
The mark [5] stands for this setting: average IC50, HEK cell assay, Aβ 40 readout.
Setting [6] is: text summary referring to data in Table 2.

pIC50: −log10 of the molar value. Like-named read-outs stand apart in the source and are kept apart here.

By pIC50 is commonly meant −log10 of the IC50, conventionally taken in molar units.

Chain of Cathepsin D (Cat D) (P07339 65-412, species assumed): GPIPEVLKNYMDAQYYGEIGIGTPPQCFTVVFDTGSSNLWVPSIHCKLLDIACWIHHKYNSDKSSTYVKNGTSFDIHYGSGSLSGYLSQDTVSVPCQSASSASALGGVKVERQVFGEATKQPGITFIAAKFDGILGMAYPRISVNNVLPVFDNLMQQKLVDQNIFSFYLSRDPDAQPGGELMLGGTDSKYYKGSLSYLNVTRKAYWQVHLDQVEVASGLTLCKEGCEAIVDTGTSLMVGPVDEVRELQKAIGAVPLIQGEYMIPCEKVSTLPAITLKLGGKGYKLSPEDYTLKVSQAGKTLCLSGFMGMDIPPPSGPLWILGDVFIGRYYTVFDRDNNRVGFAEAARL
Chain of Beta Secretase enzyme (BACE) (P56817 46-501): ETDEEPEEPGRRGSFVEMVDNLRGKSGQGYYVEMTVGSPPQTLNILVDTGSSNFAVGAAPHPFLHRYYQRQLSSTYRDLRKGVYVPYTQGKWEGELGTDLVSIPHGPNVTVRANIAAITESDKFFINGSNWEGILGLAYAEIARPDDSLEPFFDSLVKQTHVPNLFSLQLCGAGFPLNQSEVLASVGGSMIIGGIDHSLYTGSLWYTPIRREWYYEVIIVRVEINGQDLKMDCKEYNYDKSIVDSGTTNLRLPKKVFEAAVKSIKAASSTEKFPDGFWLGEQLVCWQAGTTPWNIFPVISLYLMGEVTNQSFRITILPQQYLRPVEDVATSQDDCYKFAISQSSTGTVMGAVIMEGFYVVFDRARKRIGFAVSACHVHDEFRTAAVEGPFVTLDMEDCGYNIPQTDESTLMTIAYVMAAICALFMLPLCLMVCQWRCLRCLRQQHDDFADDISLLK

With `CC#CC(C)Oc1cnc(C(=O)Nc2ccc3c(c2)[C@@]2(C)N=C(N)C(C)(C)S(=O)(=O)[C@@H]2CCO3)cn1` (mixture of isomers) [Example 14, N-((4aR,11bR)-2-amino-3,3,11b-trimethyl-4,4-dioxido-4a,5,6,11b-tetrahydro-3H-[1]benzoxepino[4,5-b][1,4]thiazin-10-yl)-5-(((1R)-1-methyl-2-butyn-1-yl)oxy)-2-pyrazinecarboxamide,N-((4aR,11bR)-2-amino-3,3,11b-trimethyl-4,4-dioxido-4a,5,6,11b-tetrahydro-3H-[1]benzoxepino[4,5-b][1,4]thiazin-10-yl)-5-(((1S)-1-methyl-2-butyn-1-yl)oxy)-2-pyrazinecarboxamide], the pIC50 in assay [1] (read-out: CatD IC50) was 3.16; in assay [2] (average IC50), 8.30; in assay [3] (HEK cell, average IC50), 9.00.
With `CC(C#N)Oc1ccc(C(=O)Nc2ccc3c(c2)[C@@]2(C)N=C(N)C(C)(C)S(=O)(=O)[C@@H]2CCO3)nc1` (mixture of isomers) [Example 125, N-((4aR,11bR)-2-amino-3,3,11b-trimethyl-4,4-dioxido-4a,5,6,11b-tetrahydro-3H-[1]benzoxepino[4,5-b][1,4]thiazin-10-yl)-5-((1R)-1-cyanoethoxy)-2-pyridinecarboxamide, N-((4aR,11bR)-2-amino-3,3,11b-trimethyl-4,4-dioxido-4a,5,6,11b-tetrahydro-3H-[1]benzoxepino[4,5-b][1,4]thiazin-10-yl)-5-((15)-1-cyanoethoxy)-2-pyridinecarboxamide], the negative logarithm of the IC50 (pIC50) in assay [1] (setting [4]) is 2.97; in assay [2] (average IC50, in vitro enzymatic BACE FRET assay) it was 7.25; in assay [3] (setting [5]), 7.17.
`Cc1cc(Cl)cnc1C(=O)Nc1ccc2c(c1)[C@]1(C)N=C(N)C(C)(C)S(=O)(=O)[C@H]1CCO2` (racemic) [Example 4, N-((4aRS,11bRS)-2-amino-3,3,11b-trimethyl-4,4-dioxido-4a,5,6,11b-tetrahydro-3H-benzo[6,7]oxepino[4,5-b][1,4]thiazin-10-yl)-5-chloro-3-methylpicolinamide]: the pIC50 is < 4.00 in assay [1] (read-out: CatD IC50); 8.40 in assay [2] (average IC50); 8.00 in assay [3] (HEK cell, average IC50).
For the compound `CC#C[C@@H](C)Oc1ccc(C(=O)Nc2ccc3c(c2)[C@@]2(C)N=C(N)C(C)(C)S(=O)(=O)[C@@H]2CCO3)nc1` (single isomer, unassigned) [Example 68], the negative-log IC50 (pIC50) in assay [1] (read-out: CatD IC50) was 2.70; in assay [1] (setting [6]) it was < 2.92; in assay [2] (average IC50), 8.70; in assay [3] (HEK cell, average IC50), 9.00.
As for `CC#C[C@H](C)Oc1ccc(C(=O)Nc2ccc3c(c2)[C@@]2(C)N=C(N)C(C)(C)S(=O)(=O)[C@@H]2CCO3)nc1` (single isomer, unassigned) [Example 69], the pIC50 was 3.09 in assay [1] (read-out: CatD IC50); 7.09 in assay [2] (average IC50); 6.00 in assay [3] (HEK cell, average IC50).
The corresponding values for `CC#C[C@H](C)Oc1cnc2c(Nc3ccc4c(c3)[C@@]3(C)N=C(N)C(C)(C)S(=O)(=O)[C@@H]3CCO4)ncc(F)c2c1` (single isomer, unassigned) [Example 70] are 3.63, 8.52 and 7.59.
The corresponding values for `CC#C[C@@H](C)Oc1cnc2c(Nc3ccc4c(c3)[C@@]3(C)N=C(N)C(C)(C)S(=O)(=O)[C@@H]3CCO4)ncc(F)c2c1` (single isomer, unassigned) [Example 71] are 3.73, 6.92 and 5.63.
The matching figures for `Cc1cc(Cl)cnc1C(=O)Nc1ccc2c(c1)[C@@]1(C)N=C(N)C(C)(C)S(=O)(=O)[C@@H]1CCO2` [Example 6a, N-((4aR,11bR)-2-amino-3,3,11b-trimethyl-4,4-dioxido-4a,5,6,11b-tetrahydro-3H-benzo[6,7]oxepino[4,5-b][1,4]thiazin-10-yl)-5-chloro-3-methylpicolinamide]: < 4.00, 8.70 and 8.22.
For `Cc1cc(Cl)cnc1C(=O)Nc1ccc2c(c1)[C@@]1(C)N=C(N)C(C)(C)S(=O)(=O)[C@H]1CCO2` [Example 6b, N-((4aS,11bR)-2-amino-3,3,11b-trimethyl-4,4-dioxido-4a,5,6,11b-tetrahydro-3H-benzo[6,7]oxepino[4,5-b][1,4]thiazin-10-yl)-5-chloro-3-methylpicolinamide], the negative logarithm of the IC50 (pIC50) in assay [1] (read-out: CatD IC50) was < 4.00; in assay [2] (average IC50) it was 8.52; in assay [3] (HEK cell, average IC50) it was 8.40.
The matching figures for `CC1(C)C(N)=N[C@]2(C)c3cc(Nc4ncccc4C#N)ccc3OCC[C@H]2S1(=O)=O` [Example 7, 2-(((4aR,11bR)-2-amino-3,3,11b-trimethyl-4,4-dioxido-4a,5,6,11b-tetrahydro-3H-[1]benzoxepino[4,5-b][1,4]thiazin-10-yl)amino)-3-pyridinecarbonitrile]: 3.60, 6.94 and 6.91.
On to `COc1cnc(C(=O)Nc2ccc3c(c2)[C@@]2(C)N=C(N)C(C)(C)S(=O)(=O)[C@H]2CCC3)cn1` [Example 8, N-((4aS,11bR)-2-amino-3,3,11b-trimethyl-4,4-dioxido-3,4a,5,6,7,11b-hexahydrobenzo[3,4]cyclohepta[1,2-b][1,4]thiazin-10-yl)-5-methoxy-2-pyrazinecarboxamide], for which the pIC50 in assay [1] (read-out: CatD IC50) was 2.72; in assay [1] (setting [6]), < 2.92; in assay [2] (average IC50) it was 6.76; in assay [3] (HEK cell, average IC50) it was 7.51.
For the compound `Cc1cc(Cl)cnc1C(=O)Nc1ccc2c(c1)[C@@]1(C)N=C(N)C(C)(C)S(=O)(=O)[C@H]1CCC2` [Example 9, N-((4a8,11bR)-2-amino-3,3,11b-trimethyl-4,4-dioxido-3,4a,5,6,7,11b-hexahydrobenzo[3,4]cyclohepta[1,2-b][1,4]thiazin-10-yl)-5-chloro-3-methyl-2-pyridinecarboxamide], the pIC50 was 3.12 in assay [1] (read-out: CatD IC50); 7.68 in assay [2] (average IC50); 7.70 in assay [3] (HEK cell, average IC50).
On to `CC#CCOc1cnc(C(=O)Nc2ccc3c(c2)[C@@]2(C)N=C(N)C(C)(C)S(=O)(=O)[C@]2(F)CCO3)cn1` [Example 94, N-((4aR,11bR)-2-amino-4a-fluoro-3,3,11b-trimethyl-4,4-dioxido-4a,5,6,11b-tetrahydro-3H-[1]benzoxepino[4,5-b][1,4]thiazin-10-yl)-5-(2-butyn-1-yloxy)-2-pyrazinecarboxamide], for which the pIC50 was < 3.40 in assay [1] (setting [4]) and 8.10 in assay [3] (setting [5]).

The values are drawn from patent US9309263B2, “Fused multi-cyclic sulfone compounds as inhibitors of beta-secretase and methods of use thereof” (AMGEN INC., priority 2013, dated 2016).
